{
  "source": "patent US20110039841A1",
  "about": "“Novel compounds, their preparation and use” (Novo Nordisk A/S, priority 2004, published 2011)",
  "origin": "cited, not measured here",
  "key": {"PPARδ": {"target": "T1, PPARδ (Mus musculus, UniProt P35396)", "T1 construct": "pharmacological treatment of both high fat diet induced insulin resistant mice and diabetic ob/ob with the potent PPARδ agonist GW501516; host or cells: mice (high fat diet induced insulin resistant; ob/ob), in vivo", "T1 sequence (P35396 1-440)": "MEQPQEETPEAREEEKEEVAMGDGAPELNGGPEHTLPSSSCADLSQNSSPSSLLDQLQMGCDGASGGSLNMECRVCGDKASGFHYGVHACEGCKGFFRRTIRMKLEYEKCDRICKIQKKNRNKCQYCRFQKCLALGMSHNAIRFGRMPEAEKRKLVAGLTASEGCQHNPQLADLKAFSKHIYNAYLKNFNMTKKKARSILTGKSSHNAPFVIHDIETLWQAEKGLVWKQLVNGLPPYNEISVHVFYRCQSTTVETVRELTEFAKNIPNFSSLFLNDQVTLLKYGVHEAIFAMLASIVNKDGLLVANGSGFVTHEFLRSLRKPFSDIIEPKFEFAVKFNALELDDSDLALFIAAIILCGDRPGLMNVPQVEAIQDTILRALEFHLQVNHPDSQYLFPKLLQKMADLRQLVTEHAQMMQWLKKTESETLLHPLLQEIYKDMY", "conditions": "high fat diet induced insulin resistant mice and diabetic ob/ob; PNAS 2003, 100, 15924-15929"}, "C2C12 muscle cells": {"tested_on": "C2C12 muscle cells", "conditions": "in vitro, BioChem. Biophys. Acta 2003, 1633, 43-50, Mol. Endocrin. 2003, 17, 2477-2493"}},
  "data": [
    {"smiles": "Cc1cc(SCc2sc(-c3ccc(C(F)(F)F)cc3)nc2C)ccc1OCC(=O)O", "note": "[GW501516]", "values": [
      {"measurement": "plasma glucose, insulin and insulin sensitivity", "setting": "PPARδ", "result": "lowering of plasma glucose and insulin and improved insulin sensitivity"},
      {"measurement": "regulation of genes of lipid metabolism and energy expenditure", "setting": "C2C12 muscle cells", "result": "regulation of genes involved with TG hydrolysis and FFA oxidation"}
    ]}
  ]
}
